Experimental data taken from BindingDB's records for doi:10.1002/(SICI)1098-2396(200002)35:2<79::AID-SYN1>3.0.CO;2-X (Institut De Recherches Servier, 2000).
Where “and” joins values, the source holds several entries; their conditions need not be identical. Identical values can stand only once.

Key:
[1] = biological target: T1, 5-hydroxytryptamine receptor 2C (Sus scrofa, UniProt K7GSR7)
T1 sequence (K7GSR7 whole entry): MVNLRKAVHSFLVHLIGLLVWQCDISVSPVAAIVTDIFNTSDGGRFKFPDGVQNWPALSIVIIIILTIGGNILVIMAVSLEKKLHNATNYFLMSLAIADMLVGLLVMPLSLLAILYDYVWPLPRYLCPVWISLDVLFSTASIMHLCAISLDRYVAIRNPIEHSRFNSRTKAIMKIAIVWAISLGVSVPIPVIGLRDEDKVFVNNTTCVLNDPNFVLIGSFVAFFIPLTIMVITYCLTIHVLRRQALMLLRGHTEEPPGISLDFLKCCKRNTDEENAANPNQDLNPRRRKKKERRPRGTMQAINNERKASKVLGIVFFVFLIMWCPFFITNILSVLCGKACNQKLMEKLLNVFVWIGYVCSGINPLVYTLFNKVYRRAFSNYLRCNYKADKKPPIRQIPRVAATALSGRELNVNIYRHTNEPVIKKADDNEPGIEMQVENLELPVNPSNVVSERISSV

[2] = biological target: T2, 5-hydroxytryptamine receptor 3A (Mus musculus, UniProt P23979)
T2 sequence (P23979 whole entry): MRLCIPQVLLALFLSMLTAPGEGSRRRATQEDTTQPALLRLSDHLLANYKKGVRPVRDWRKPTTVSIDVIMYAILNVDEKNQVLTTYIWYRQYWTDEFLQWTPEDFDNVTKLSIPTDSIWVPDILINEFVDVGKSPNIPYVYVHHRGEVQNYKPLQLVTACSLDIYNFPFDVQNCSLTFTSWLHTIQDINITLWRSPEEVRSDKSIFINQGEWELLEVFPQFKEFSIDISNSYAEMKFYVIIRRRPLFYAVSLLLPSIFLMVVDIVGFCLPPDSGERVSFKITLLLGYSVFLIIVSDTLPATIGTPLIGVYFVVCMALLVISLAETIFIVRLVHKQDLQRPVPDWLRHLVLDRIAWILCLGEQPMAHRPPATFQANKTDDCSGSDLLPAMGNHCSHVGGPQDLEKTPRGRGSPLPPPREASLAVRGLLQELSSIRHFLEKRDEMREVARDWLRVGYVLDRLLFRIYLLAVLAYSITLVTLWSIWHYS

[3] = biological target: T3, Alpha-2A adrenergic receptor (Homo sapiens, UniProt P08913)
T3 sequence (P08913 whole entry): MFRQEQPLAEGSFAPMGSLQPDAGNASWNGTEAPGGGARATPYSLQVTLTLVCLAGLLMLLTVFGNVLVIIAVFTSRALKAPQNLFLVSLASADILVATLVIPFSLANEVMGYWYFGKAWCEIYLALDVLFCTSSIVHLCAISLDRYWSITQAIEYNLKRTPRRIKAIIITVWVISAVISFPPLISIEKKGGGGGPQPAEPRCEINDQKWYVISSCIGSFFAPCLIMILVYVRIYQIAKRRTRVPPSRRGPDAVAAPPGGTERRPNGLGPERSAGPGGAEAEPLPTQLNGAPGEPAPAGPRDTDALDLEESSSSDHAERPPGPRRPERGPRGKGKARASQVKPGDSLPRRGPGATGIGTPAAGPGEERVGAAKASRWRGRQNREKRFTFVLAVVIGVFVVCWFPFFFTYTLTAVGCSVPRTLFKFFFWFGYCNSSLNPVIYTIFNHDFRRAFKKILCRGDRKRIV

[4] = biological target: 5-hydroxytryptamine receptor 1B (Cavia porcellus, UniProt O08892)
Sequence of 5-hydroxytryptamine receptor 1B (O08892 whole entry): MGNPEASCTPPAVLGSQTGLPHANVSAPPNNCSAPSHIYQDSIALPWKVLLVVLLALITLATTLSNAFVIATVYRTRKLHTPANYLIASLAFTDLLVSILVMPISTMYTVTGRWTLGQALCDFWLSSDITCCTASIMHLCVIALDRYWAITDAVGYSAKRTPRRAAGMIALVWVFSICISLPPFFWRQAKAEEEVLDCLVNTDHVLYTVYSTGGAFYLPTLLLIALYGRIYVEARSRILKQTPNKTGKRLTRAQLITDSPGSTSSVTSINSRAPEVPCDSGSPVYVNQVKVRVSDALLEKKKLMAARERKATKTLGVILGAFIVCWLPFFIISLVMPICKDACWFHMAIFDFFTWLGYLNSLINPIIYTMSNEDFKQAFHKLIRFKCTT

[5] = biological target: 5-hydroxytryptamine receptor 1D (Homo sapiens, UniProt P28221)
Sequence of 5-hydroxytryptamine receptor 1D (P28221 whole entry): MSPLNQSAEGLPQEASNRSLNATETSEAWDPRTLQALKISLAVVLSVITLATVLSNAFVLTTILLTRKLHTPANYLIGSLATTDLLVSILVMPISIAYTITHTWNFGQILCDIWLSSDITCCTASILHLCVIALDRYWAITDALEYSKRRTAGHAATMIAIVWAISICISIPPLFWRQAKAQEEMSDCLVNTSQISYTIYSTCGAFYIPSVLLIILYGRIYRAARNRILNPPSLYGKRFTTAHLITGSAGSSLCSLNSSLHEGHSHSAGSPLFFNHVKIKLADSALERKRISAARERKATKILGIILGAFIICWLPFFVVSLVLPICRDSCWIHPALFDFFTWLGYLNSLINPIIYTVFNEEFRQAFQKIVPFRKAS

D(2) dopamine receptor = D(2) dopamine receptor (Homo sapiens, UniProt P14416)
Sequence of D(2) dopamine receptor (P14416 whole entry): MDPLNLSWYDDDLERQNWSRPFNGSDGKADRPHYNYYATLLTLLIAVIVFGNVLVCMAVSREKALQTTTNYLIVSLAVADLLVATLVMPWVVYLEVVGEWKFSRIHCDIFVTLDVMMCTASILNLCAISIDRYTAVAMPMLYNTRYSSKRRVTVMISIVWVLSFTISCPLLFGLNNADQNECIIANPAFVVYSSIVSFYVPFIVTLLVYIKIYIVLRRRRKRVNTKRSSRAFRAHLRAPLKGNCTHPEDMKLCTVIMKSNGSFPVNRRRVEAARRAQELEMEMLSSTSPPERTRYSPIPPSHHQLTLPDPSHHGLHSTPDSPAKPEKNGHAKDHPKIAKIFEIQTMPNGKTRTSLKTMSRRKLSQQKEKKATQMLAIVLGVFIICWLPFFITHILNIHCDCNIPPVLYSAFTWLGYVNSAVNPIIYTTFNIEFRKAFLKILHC

SMILES: NCCc1c[nH]c2ccccc12 [1H-indole-3-ethanamine]
- Ki [1]: 79.4 nM

SMILES: Cc1nccn1CC1CCc2c(c3ccccc3n2C)C1=O (configuration not stated) [NSC_68647]
- Ki [2]: 3.98 nM

SMILES: COC1(C2=NCCN2)COc2ccccc2O1 (configuration not stated) [RX821002]
- Ki [3]: 1 nM

SMILES: NCCc1c[nH]c2ccc(O)cc12 [[3H]-5-HT]
- Ki [4]: 2.51 nM

SMILES: COC(=O)[C@@H]1[C@H]2C[C@H]3c4[nH]c5ccccc5c4CCN3C[C@@H]2CC[C@@H]1O [yohimbic acid methyl ester]
- Ki [4]: 50.1 nM
- Ki [5]: 19.9 nM and 25.1 nM
- Ki (D(2) dopamine receptor): 398 nM
